Data as given in patent publication US20080131310A1, “Methods for determining effectiveness of waste water tank deodorizers and synthetic waste compositions for use in said methods” (Fuller Brush Company, Inc., priority 2006, published 2008).
Marks after values point to notes of the source that are not given here.

Test system: Escherichia coli strain K12 (ATCC 25253)
Test: Inhibitive evaluation: hydrogen sulfide generation in synthetic waste water media inoculated with E. coli
Assay type: cell-based
Settings: for H2S in ppm vs. contact times, 24 Hours: 24 hours contact time; for H2S in ppm vs. contact times, 48 Hours: 48 hours contact time; for H2S in ppm vs. contact times, 72 Hours: 72 hours contact time
Protocol: An experiment was conducted to evaluate the effectiveness of recreational vehicle (Black) waste water tank deodorizer in preventing […] degradation processes that result in unpleasant odors. The effectiveness of the tank deodorizer was evaluated through the inhibition of growth using an E. Coli within a synthetic waste water media. This comparison of the respective products inhibition was over selected time periods from 5 to 7 days.
500 grams total of synthetic soil media was prepared having the following ingredients:
RV biodegradable toilet paper (small pieces) . . . 5.0 g • With the exception of the oatmeal and toilet paper, the above ingredients were mixed together and heated to 55° C. with constant mixing for 15 to 20 minutes. The oatmeal and toilet paper were then added and thoroughly mixed in. Mixture is allowed to cool to room temperature, then transferred to the waste water tank/digester test vessel.
Escherichia coli strain K12 (ATCC 25253) was employed.
1. To build up the count of microbes, using a 48-hour Nutrient Broth culture incubated at 37° C. of the E. Coli or other selected organism, the culture must be on at least the fourth consecutive 24-hour transfer before using. Have one tube of the 48-hour culture available for each of the test vessels.
2. Before inoculating the surrogate black waste water tank test vessel containing the synthetic soil media, the number of organisms being utilized was verified to achieve a range no less than a count of log^8 per milliliter. Serial dilutions of the E. coli culture were prepared as follows:
a.) Tube • #1. 1.0 ml organism culture+9.0 ml Nutrient Broth=1/10 • #2. 1.0 ml tube #1 dilution+9.0 ml Nutrient Broth=1/10^−2 • #3. 1.0 ml tube #2 dilution+9.0 ml Nutrient Broth=1/10^−3 • #4. 1.0 ml tube #3 dilution+9.0 ml Nutrient Broth=1/10^−4 • #5. 1.0 ml tube #4 dilution+9.0 ml Nutrient Broth=1/10^−5 • #6. 1.0 ml tube #5 dilution+9.0 ml Nutrient Broth=1/10^−6 • #7. 1.0 ml tube #6 dilution+9.0 ml Nutrient Broth=1/10^−7 • #8. 1.0 ml tube #7 dilution+9.0 ml Nutrient Broth=1/10^−8 • *Note: each dilution was thoroughly mixed before transferring to the next tube. b.) Each dilution was plated by the pour plate method. 1.0 ml of dilution was plated with 10.0 ml TGY pour plate agar. Plates were incubated at 37° C. for 48 hrs before reading for enumeration.
3. Specified amounts of test subject deodorizer from the chart below were added to the test vessel containing the 500 grams of the synthetic soil media and mix thoroughly to assure uniform distribution.
4. 5.0 ml of the E. coli culture from step #1 were added to the test vessel and thoroughly mixed to assure uniform distribution. This brought the organism count to a range to greater than 1.0×10^4 cfu/ml in the 500 g of synthetic soil media.
5. Caps were placed on the test vessels and the vessels were stored at a temperature of 80° F. during the 5 day or more evaluation period. Note: Tests may be performed at various temperatures at the discretion of the investigator. For example, 100° F. incubation may be used to reflect very high summer temperature test environments.
6. At 24 hrs contact time, handling was in such a manner as to minimize movement of the container and sewage inside. The cap was quickly removed from the test vessel and the holding cradle containing the H2S monitor was placed over the mouth of the test vessel for 4 minutes. During the 4 minute testing period the container was maintained as still as possible. • *Note: monitor must be zeroed before each reading taken.
7. After 4 minute of testing was completed, the monitor and cradle were removed from the mouth of the vessel and the cap replaced. Peak gas readings in ppm of H2S were recorded. Steps 6 & 7 were repeated for each test vessel in set.
8. Steps (6-7) were repeated for each of the remaining contact times of 48 hrs, 72 hrs, 96 hrs, 120 hrs. It should be noted that other times could be adopted for standardization of the protocol and that these times are simply preferred. […]

[1] = 0.78 ml/500 g synthetic soil media (8 oz per 40 gal tank), 80° F., peak head space reading, >5 ppm unacceptable

Structure (SMILES) | H2S in ppm vs. contact times, 24 Hours [1] | H2S in ppm vs. contact times, 48 Hours [1] | H2S in ppm vs. contact times, 72 Hours [1] | H2S in ppm vs. contact times, 96 Hours (96 hours contact time, 0.78 ml/500 g synthetic soil media (8 oz per 40 gal tank), 80° F., peak head space reading, >5 ppm unacceptable) | H2S in ppm vs. contact times, 120 Hours (120 hours contact time, 0.78 ml/500 g synthetic soil media (8 oz per 40 gal tank), 80° F., peak head space reading, >5 ppm unacceptable) | Performance in H2S inhibition compared with the Aqua Kem control (over 120 hours, 0.78 ml/500 g synthetic soil media)
O=[N+]([O-])C(Br)(CO)CO [Bronopol, 2-bromo-2-nitropropane-1,3-diol] | 0 ppm | 0 ppm | 0 ppm | 0 ppm | 0 ppm | The * indicates when each active had reached the unacceptable level of odor value. The two best performing actives that were equal to or near the performance of the Aqua Kem control were the Bronopol and Neolone M-10.
C1N2CN3CN1CN(C2)C3 [Hexamethylene-Tetramine] | 2 ppm | 2 ppm | 48* ppm | – | – | –
